Patent US6906188B2, “Method for synthesizing epothilones and epothilone analogs” (State of Oregon acting by and through the State Board of …, priority 2001, dated 2005)
Where two headings read alike, the source gives them in different places.

Legend:
[1] = system: KB-8511 (Epidermoid), Pgp-overexpressing sub-line of KB-31; assay: Antiproliferative activity (growth inhibition), KB-8511 cells; details: Homo sapiens
Description: (§1) The antiproliferative activity of cis 9,10-dehydroepothilone D and trans 9,10-dehydroepothilone D was assessed in vitro using a panel of human cancer cell lines.

KB-31 (Epidermoid) = assay: Antiproliferative activity (growth inhibition), KB-31 cells; assay type: cell-based; details: Homo sapiens
Description: as §1

porcine tubulin = porcine tubulin (Sus scrofa, UniProt P02554); assay: Induction of porcine tubulin polymerization; assay type: biochemical
Chain of porcine tubulin (P02554 whole entry): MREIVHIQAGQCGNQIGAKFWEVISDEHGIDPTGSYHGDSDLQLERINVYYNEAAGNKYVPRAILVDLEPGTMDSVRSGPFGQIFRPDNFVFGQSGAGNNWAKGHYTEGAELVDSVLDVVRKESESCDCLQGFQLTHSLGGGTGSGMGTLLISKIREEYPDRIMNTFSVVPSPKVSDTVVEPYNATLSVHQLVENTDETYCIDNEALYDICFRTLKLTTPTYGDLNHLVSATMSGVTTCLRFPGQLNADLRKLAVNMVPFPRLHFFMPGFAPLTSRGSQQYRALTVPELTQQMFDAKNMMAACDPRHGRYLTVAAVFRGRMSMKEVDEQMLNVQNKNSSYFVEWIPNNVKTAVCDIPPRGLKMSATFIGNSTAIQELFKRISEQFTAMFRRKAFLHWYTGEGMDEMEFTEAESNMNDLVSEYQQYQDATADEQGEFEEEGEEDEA
Chain of porcine tubulin (P02550 whole entry partner): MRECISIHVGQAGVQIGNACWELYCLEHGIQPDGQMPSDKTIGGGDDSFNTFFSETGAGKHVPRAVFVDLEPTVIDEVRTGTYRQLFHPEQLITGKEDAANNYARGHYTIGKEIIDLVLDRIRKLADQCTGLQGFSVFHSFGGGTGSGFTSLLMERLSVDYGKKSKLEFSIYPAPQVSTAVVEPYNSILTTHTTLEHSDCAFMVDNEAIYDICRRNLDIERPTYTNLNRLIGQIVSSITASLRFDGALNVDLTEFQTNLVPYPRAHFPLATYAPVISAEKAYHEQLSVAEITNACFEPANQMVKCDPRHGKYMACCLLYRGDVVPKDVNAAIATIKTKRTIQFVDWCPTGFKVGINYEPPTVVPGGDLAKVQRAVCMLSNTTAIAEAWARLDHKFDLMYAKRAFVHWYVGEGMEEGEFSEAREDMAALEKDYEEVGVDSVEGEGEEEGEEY

tubulin = details: Merck comparison with Taxol; cited from earlier work
PC3-M (prostate) = assay: Antiproliferative activity (growth inhibition), PC3-M cells; assay type: cell-based; details: Homo sapiens, PC-3M, read-out: IC50 PC3-M (prostate)
Description: as §1

A549 (lung) = assay: Antiproliferative activity (growth inhibition), A549 cells; assay type: cell-based; details: Homo sapiens
Description: as §1

[2] = system: IFN-γ-treated murine-macrophage; details: IFN-γ-treated murine macrophages; cited from earlier work
[3] = system: Potorous tridactylis kidney epithelial (PtK2) cells; details: indirect immunofluorescence; cited from earlier work
[4] = system: subcutaneous implantations of tumor tissues; details: mice, subcutaneous tumor implants, Sloan Kettering; cited from earlier work
MCF-7 (breast) = assay: Antiproliferative activity (growth inhibition), MCF-7 cells; assay type: cell-based; details: Homo sapiens
Description: as §1

HCT-116 (colon) = assay: Antiproliferative activity (growth inhibition), HCT-116 cells; assay type: cell-based; details: Homo sapiens
Description: as §1

[5] = system: panel of human cancer cell lines; assay: Antiproliferative activity across the cell line panel; assay type: cell-based
From the text: Known epothilones have significant biological activity.

[6] = system: Pgp-expressing MDR neuroblastoma cell line (SK-N SH); details: cited from earlier work
[7] = KB 3-1, read-out: IC50 KB-8511 (Epidermoid)
[8] = KB 3-1, Table 2, under the conditions used for Table 1 (there nM), unit inferred, read-out: IC50 KB-31 (Epidermoid)
[9] = Table 2, under the conditions used for Table 1, unit not given
[10] = KB 3-1, read-out: IC50 KB-8511 (Epidermoid), Table 1, Pgp-overexpressing sub-line, mean of three independent experiments
[11] = KB 3-1, read-out: IC50 KB-8511 (Epidermoid), Table 2, under the conditions used for Table 1 (there nM), unit inferred
[12] = A549, read-out: IC50 A549 (lung)
[13] = KB 3-1, read-out: IC50 KB-31 (Epidermoid), Table 2, under the conditions used for Table 1 (there nM), unit inferred
[14] = 5 μM compound, relative to the effect of Epothilone B at 25 μM defined as 100%
[15] = MCF7, read-out: IC50 MCF-7 (breast)
[16] = HCT-116, read-out: IC50 HCT-116 (colon)
[17] = mean of three independent experiments
[18] = A549, mean of three independent experiments, read-out: IC50 A549 (lung)
[19] = KB 3-1, Table 1, mean of three independent experiments, read-out: IC50 KB-31 (Epidermoid)
[20] = MCF7, mean of three independent experiments, read-out: IC50 MCF-7 (breast)
[21] = HCT-116, mean of three independent experiments, read-out: IC50 HCT-116 (colon)
[22] = antiproliferative potency, cell line panel of Table 1

| IC50 [1, 10] [nM] | Tubulin Polym. (porcine tubulin; [14]) [%] | IC50 (PC3-M (prostate); [17]) [nM] | IC50 (A549 (lung); [18]) [nM] | IC50 (KB-31 (Epidermoid); [19]) [nM] | IC50 (MCF-7 (breast); [20]) [nM] | IC50 (HCT-116 (colon); [21]) [nM] | SMILES | Tubulin Polym. (porcine tubulin; [9]) | also measured |
| --- | --- | --- | --- | --- | --- | --- | --- | --- | --- |
| – | – | – | – | – | – | – | C/C1=C/C[C@@H](/C(C)=C/c2csc(C)n2)OC(=O)C[C@H](O)C(C)(C)C(=O)[C@H](C)[C@@H](O)[C@@H](C)C(=O)OC1 [Bislactone] | 21.4 | IC50 [1, 7]: 25.2 nM; IC50 (KB-31 (Epidermoid); [8]): 25.5 nM |
| 70.4 | 36 | 147 | 109 | 104 | 95 | 110 | C/C1=C\C[C@@H](/C(C)=C/c2csc(C)n2)OC(=O)C[C@H](O)C(C)(C)C(=O)[C@H](C)[C@@H](O)[C@@H](C)/C=C/C1 [trans 9,10, trans 12,13-dehydroepothilone D] | – | average IC50 for growth inhibition, fold higher than cis 9,10-dehydroepothilone D ([5]; average over the cell line panel): 1.36 fold |
| 28.5 | 56 | 146 | 109 | 59.4 | 72 | 102 | C/C1=C/C[C@@H](/C(C)=C/c2csc(C)n2)OC(=O)C[C@H](O)C(C)(C)C(=O)[C@H](C)[C@@H](O)[C@@H](C)/C=C\C1 [9,10-cis-Dehydroepothilone D, 9,10-dehydrodes-epoxyepothilone B] | – | fold less potent than epothilone B [5, 22]: 330- to 670 fold; fold less potent than natural epothilone D [5, 22]: 20- to 30 fold |
| 842 | 53 | 6.62 | 5.19 | 2.67 | 3.26 | 4.88 | CC(=O)O[C@H]1C(=O)[C@@]2(C)[C@H]([C@H](OC(=O)c3ccccc3)[C@]3(O)C[C@H](OC(=O)[C@H](O)[C@@H](NC(=O)c4ccccc4)c4ccccc4)C(C)=C1C3(C)C)[C@]1(OC(C)=O)CO[C@@H]1C[C@@H]2O [Paclitaxel (Taxol), Paclitaxel] | 38.9 | IC50 [1, 11]: 661 nM; IC50 (KB-31 (Epidermoid); [8]): 2.9 nM |
| – | – | – | – | – | – | – | C/C(=C\c1csc(C)n1)[C@@H]1CC2O[C@@H]2CCC[C@H](C)[C@H](O)[C@@H](C)C(=O)C(C)(C)[C@@H](O)CC(=O)O1 (stereo partly drawn) [Epothilone A] | – | activity against Pgp-expressing MDR neuroblastoma cell line [6]: active; potency as tubulin polymerization agent (rank order) (tubulin): epothilone B>epothilone A>Taxol |

| SMILES | IC50 [1, 10] [nM] | Tubulin Polym. (porcine tubulin; [14]) [%] | IC50 (PC3-M (prostate); [17]) [nM] | IC50 (A549 (lung); [18]) [nM] | IC50 (KB-31 (Epidermoid); [19]) [nM] | IC50 (MCF-7 (breast); [20]) [nM] | IC50 (HCT-116 (colon); [21]) [nM] | Tubulin Polym. (porcine tubulin; [9]) | also measured |
| --- | --- | --- | --- | --- | --- | --- | --- | --- | --- |
| C/C(=C\c1csc(C)n1)[C@@H]1C[C@@H]2O[C@]2(C)CCC[C@H](C)[C@H](O)[C@@H](C)C(=O)C(C)(C)[C@@H](O)CC(=O)O1 [Epothilone B] | 0.16 | 95 | – | – | – | – | – | 81.4 | potency as tubulin polymerization agent (rank order) (tubulin): epothilone B>epothilone A>Taxol; IC50 (PC3-M (prostate)): 0.32 nM; IC50 [1, 11]: 0.15 nM; IC50 (A549 (lung); [12]): 0.16 nM; macrophage stimulatory activity as measured by nitric oxide release [2]: lacked any IFN-γ-treated murine-macrophage stimulatory activity; IC50 (KB-31 (Epidermoid); [13]): 0.24 nM; formation of microtubule bundles [3]: most active, inducing extensive formation of microtubule bundles; in vivo antitumor effect compared with Taxol [4]: superiority; IC50 (MCF-7 (breast); [15]): 0.29 nM; IC50 (HCT-116 (colon); [16]): 0.34 nM |
| C/C1=C/C[C@@H](/C(C)=C/c2csc(C)n2)OC(=O)C[C@H](O)C(C)(C)C(=O)[C@H](C)[C@@H](O)[C@@H](C)CCC1 [Epothilone D] | – | 88 | – | – | – | – | – | 62.3 | IC50 (PC3-M (prostate)): 7.4 nM; IC50 [1, 7]: 1 nM; IC50 (A549 (lung); [12]): 4.62 nM; IC50 (KB-31 (Epidermoid); KB 3-1, read-out: IC50 KB-31 (Epidermoid), Table 1, mean of three independent experiments): 1.94 nM; IC50 (KB-31 (Epidermoid); [13]): 1.94 nM; IC50 (MCF-7 (breast); [15]): 2.31 nM; IC50 (HCT-116 (colon); [16]): 4.48 nM |
